These results are taken from PubChem BioAssay AID1259407 (Chemical Carcinogenesis Research Information System (CCRIS), 2018).

For this data set, the system named is CCRIS mutagenicity, Ames/micronucleus/aberration tests. The data set is described as follows: CCRIS mutagenicity studies.
Setting [1] is: Test System: AMES SALMONELLA TYPHIMURIUM, Strain/Indicator: TA100, Metabolic Activation: NONE, Method: STANDARD PLATE.
The mark [2] stands for this setting: Test System: AMES SALMONELLA TYPHIMURIUM, Strain/Indicator: TA100, Metabolic Activation: NONE, Method: PREINCUBATION
Where [3] appears, read: Test System: AMES SALMONELLA TYPHIMURIUM, Strain/Indicator: TA98, Metabolic Activation: NONE, Method: PREINCUBATION

SMILES strings stand for the structures. Active and inactive are the calls of the source. The rule behind the calls is not given here.

As to `O=C(N/N=C/c1ccc([N+](=O)[O-])o1)c1ccc(O)cc1`, the mutagenic call is, setting by setting: (Test System: AMES SALMONELLA TYPHIMURIUM, Strain/Indicator: TA100(FR1), Metabolic Activation: NONE, Method: STANDARD PLATE) “active; positive”; (Test System: AMES SALMONELLA TYPHIMURIUM, Strain/Indicator: TA100(FR1), Metabolic Activation: RAT, LIVER, S-9, PHENOBARBITAL AND 3-METHYLCHOLANTHRENE, Method: STANDARD PLATE) “active; positive”; under setting [1], “active; positive”; (Test System: AMES SALMONELLA TYPHIMURIUM, Strain/Indicator: TA100, Metabolic Activation: RAT, LIVER, S-9, PHENOBARBITAL AND 3-METHYLCHOLANTHRENE, Method: STANDARD PLATE) “active; positive”; (Test System: CHINESE HAMSTER V-79, Strain/Indicator: V-79/6-THIOGUANINE, Metabolic Activation: NONE) “inactive; negative”; (Test System: CHINESE HAMSTER V-79, Strain/Indicator: V-79/6-THIOGUANINE, Metabolic Activation: RAT, LIVER, HEPATOCYTES) “inactive; negative”. The mutagenic call by setting is: (Test System: CHINESE HAMSTER V-79, Strain/Indicator: V-79/OUABAIN, Metabolic Activation: NONE) “inactive; negative”; (Test System: CHINESE HAMSTER V-79, Strain/Indicator: V-79/OUABAIN, Metabolic Activation: RAT, LIVER, HEPATOCYTES) “inactive; negative”.

For `[Cl][Rh-2]([Cl])([Cl])([Cl])[Cl]`, the mutagenic call reads like this: (Test System: AMES SALMONELLA TYPHIMURIUM, Strain/Indicator: TA97A, Metabolic Activation: NONE, Method: STANDARD PLATE) “inactive; negative”; (Test System: AMES SALMONELLA TYPHIMURIUM, Strain/Indicator: TA97A, Metabolic Activation: RAT, LIVER, S-9, PHENOBARBITAL AND 5,6-BENZOFLAVONE, Method: STANDARD PLATE) “active; positive”; (Test System: AMES SALMONELLA TYPHIMURIUM, Strain/Indicator: TA97A, Metabolic Activation: RAT, LIVER, S-9, PHENOBARBITAL AND BETA-NAPHTHOFLAVONE, Method: STANDARD PLATE) “active; positive”; (Test System: AMES SALMONELLA TYPHIMURIUM, Strain/Indicator: TA98, Metabolic Activation: NONE, Method: STANDARD PLATE) “active; positive”; (Test System: AMES SALMONELLA TYPHIMURIUM, Strain/Indicator: TA98, Metabolic Activation: RAT, LIVER, S-9, PHENOBARBITAL AND 5,6-BENZOFLAVONE, Method: STANDARD PLATE) “active; positive”; (Test System: AMES SALMONELLA TYPHIMURIUM, Strain/Indicator: TA98, Metabolic Activation: RAT, LIVER, S-9, PHENOBARBITAL AND BETA-NAPHTHOFLAVONE, Method: STANDARD PLATE) “active; positive”. The mutagenic call under setting [1] is “inactive; negative”; the mutagenic call (Test System: AMES SALMONELLA TYPHIMURIUM, Strain/Indicator: TA100, Metabolic Activation: RAT, LIVER, S-9, PHENOBARBITAL AND 5,6-BENZOFLAVONE, Method: STANDARD PLATE) is “active; positive”; the mutagenic call (Test System: AMES SALMONELLA TYPHIMURIUM, Strain/Indicator: TA100, Metabolic Activation: RAT, LIVER, S-9, PHENOBARBITAL AND BETA-NAPHTHOFLAVONE, Method: STANDARD PLATE) is “active; positive”; the mutagenic call (Test System: AMES SALMONELLA TYPHIMURIUM, Strain/Indicator: TA102, Metabolic Activation: NONE, Method: STANDARD PLATE) was “active; positive”; the mutagenic call (Test System: AMES SALMONELLA TYPHIMURIUM, Strain/Indicator: TA102, Metabolic Activation: RAT, LIVER, S-9, PHENOBARBITAL AND 5,6-BENZOFLAVONE, Method: STANDARD PLATE) was “active; positive”; the mutagenic call (Test System: AMES SALMONELLA TYPHIMURIUM, Strain/Indicator: TA102, Metabolic Activation: RAT, LIVER, S-9, PHENOBARBITAL AND BETA-NAPHTHOFLAVONE, Method: STANDARD PLATE) was “active; positive”.

In the case of `CC/C=C/C=O`, the mutagenic call reads like this: under setting [2], “inactive; negative”; (Test System: AMES SALMONELLA TYPHIMURIUM, Strain/Indicator: TA100, Metabolic Activation: NONE, Method: PREINCUBATION (THREEFOLD CELL DENSITY)) “active; positive”; (Test System: AMES SALMONELLA TYPHIMURIUM, Strain/Indicator: TA100, Metabolic Activation: RAT, LIVER, S-9, AROCLOR 1254, Method: PREINCUBATION) “active; positive”; (Test System: AMES SALMONELLA TYPHIMURIUM, Strain/Indicator: TA100, Metabolic Activation: RAT, LIVER, S-9, AROCLOR 1254, Method: PREINCUBATION (THREEFOLD CELL DENSITY)) “active; positive”; (Test System: CHINESE HAMSTER V-79, Strain/Indicator: V-79/6-THIOGUANINE, Metabolic Activation: NONE, Method: STANDARD PLATE) “active; positive”; (Test System: CHINESE HAMSTER V-79, Strain/Indicator: V-79/OUABAIN, Metabolic Activation: NONE, Method: STANDARD PLATE) “inactive; negative”.

Consider `Cc1ccccc1S(N)(=O)=O`, for which the mutagenic call is “inactive; negative” under setting [3]; “inactive; negative” (Test System: AMES SALMONELLA TYPHIMURIUM, Strain/Indicator: TA98, Metabolic Activation: RAT LIVER S-9, PHENOBARBITAL AND BETA-NAPHTHOFLAVONE, Method: PREINCUBATION); “inactive; negative” under setting [2]; “inactive; negative” (Test System: AMES SALMONELLA TYPHIMURIUM, Strain/Indicator: TA100, Metabolic Activation: RAT LIVER S-9, PHENOBARBITAL AND BETA-NAPHTHOFLAVONE, Method: PREINCUBATION); “inactive; negative” (Test System: AMES SALMONELLA TYPHIMURIUM, Strain/Indicator: TA1535, Metabolic Activation: NONE, Method: PREINCUBATION); “inactive; negative” (Test System: AMES SALMONELLA TYPHIMURIUM, Strain/Indicator: TA1535, Metabolic Activation: RAT LIVER S-9, PHENOBARBITAL AND BETA-NAPHTHOFLAVONE, Method: PREINCUBATION). Also, the mutagenic call is “inactive; negative” (Test System: AMES SALMONELLA TYPHIMURIUM, Strain/Indicator: TA1537, Metabolic Activation: NONE, Method: PREINCUBATION); “inactive; negative” (Test System: AMES SALMONELLA TYPHIMURIUM, Strain/Indicator: TA1537, Metabolic Activation: RAT LIVER S-9, PHENOBARBITAL AND BETA-NAPHTHOFLAVONE, Method: PREINCUBATION); “inactive; negative” (Test System: AMES SALMONELLA TYPHIMURIUM, Strain/Indicator: TA1538, Metabolic Activation: NONE, Method: PREINCUBATION); “inactive; negative” (Test System: AMES SALMONELLA TYPHIMURIUM, Strain/Indicator: TA1538, Metabolic Activation: RAT LIVER S-9, PHENOBARBITAL AND BETA-NAPHTHOFLAVONE, Method: PREINCUBATION); “inactive; negative” (Test System: E.COLI, Strain/Indicator: WP2UVRA/PKM101, Metabolic Activation: NONE, Method: PREINCUBATION); “inactive; negative” (Test System: E.COLI, Strain/Indicator: WP2UVRA/PKM101, Metabolic Activation: RAT LIVER S-9, PHENOBARBITAL AND BETA-NAPHTHOFLAVONE, Method: PREINCUBATION). In addition, the mutagenic call was “inactive; negative” (Test System: E.COLI, Strain/Indicator: WP2UVRA, Metabolic Activation: NONE, Method: PREINCUBATION) and “inactive; negative” (Test System: E.COLI, Strain/Indicator: WP2UVRA, Metabolic Activation: RAT LIVER S-9, PHENOBARBITAL AND BETA-NAPHTHOFLAVONE, Method: PREINCUBATION).

As for `CC(=O)N[C@@H](CSC(Cl)=C(Cl)Cl)C(=O)O`, the mutagenic call was “active; positive” under setting [2] and “active; positive” (Test System: AMES SALMONELLA TYPHIMURIUM, Strain/Indicator: TA100, Metabolic Activation: RAT, KIDNEY, CYTOSOL, Method: PREINCUBATION).

As to `COC(=O)Nc1nc2ccc(S(=O)c3ccccc3)cc2[nH]1` (centres undefined), the mutagenic call is “active; positive (structural changes and ploidy)” (End Point: In vivo chromosomal aberrations, Test System: Bone marrow cells, Species: Mouse, Strain/Sex: Swiss /Female, Route: Oral); “active; positive (structural changes and ploidy)” (End Point: In vivo chromosomal aberrations, Test System: Bone marrow cells, Species: Mouse, Strain/Sex: Swiss /Male, Route: Oral); “active; positive (ploidy)” (End Point: In vivo chromosomal aberrations, Test System: Spermatocytes, Species: Mouse, Strain/Sex: Swiss /Male, Route: Oral).

With `Cc1ccc2cc3ccc4ccccc4c3nc2c1`, the mutagenic call is “inactive; negative” (Test System: AMES SALMONELLA TYPHIMURIUM, Strain/Indicator: TA97A, Metabolic Activation: NONE, Method: PREINCUBATION); “inactive; negative” under setting [3]; “active; positive” under setting [2]; “inactive; negative” (Test System: AMES SALMONELLA TYPHIMURIUM, Strain/Indicator: TA102, Metabolic Activation: NONE, Method: PREINCUBATION).
